The values below come from ChEMBL document CHEMBL3507680, “University of Dundee, Gates Library screen for HepG2 cell viability”.

This data set in a line: Human HepG2 cell viability assay in 384 well format. Type of data set: toxicity, cell-based. Further details: dose 125 nL, time 70.5 hour; concentration not given beside the values. To be noted: HepG2 cells, read-out: Inhibition.

Regarding `Cc1nc2n(n1)CCN(S(=O)(=O)c1ccc(OC(F)(F)F)cc1)C2`, the cytotoxicity at 70.5 h was -1.32%. To `Cc1nc2n(n1)CCN(S(=O)(=O)c1ccc(Cl)cc1)C2` belongs -3.28%; to `Cn1cc(S(=O)(=O)NCCc2nnc3ccccn23)cn1`, -4.25%. In the case of `O=C(Nc1cc(Cl)ccc1Cl)NC1CCN(C2CCOC2)CC1` (configuration not stated) it was 25.3%; in that of `O=C(c1ccc[nH]1)N(Cc1ccc(O)cc1)CC1CC1`, 20.8%; in that of `CN(C)C1CN(C(=O)Nc2cccc(OC(F)F)c2)C1`, 17.6%.

With `CN(C)c1cccc(CNC(=O)Nc2ccc3[nH]nnc3c2)n1`, the cytotoxicity at 70.5 h is -2.68%. In the case of `CC(C)Cn1cnc(S(=O)(=O)NCCc2nnc3ccccn23)c1` it was 15.7%; in that of `CS(=O)(=O)N1CCC(OCCCc2ccccc2)C1` (configuration not stated), 3.28%; in that of `COCCN(Cc1ccccc1)Cc1nc(-c2ccsc2)no1`, -3.79%. In the case of `Cc1cnn(CC2CCCCN2c2ncnc3ccccc23)c1` (configuration not stated) it was -5.59%; in that of `Cc1nc(CNC(C(=O)N2CCOCC2)c2ccccc2)cs1` (configuration not stated), -6.01%. To `Cc1cnn(CC2CCCN2c2ncnc3ccccc23)c1` (configuration not stated) belongs 9.14%; to `Cc1cccc(OCCNC(=O)C(C)S(=O)(=O)c2ccccn2)c1` (configuration not stated), -2.85%.

With `CN(C)S(=O)(=O)c1ccc(CNC(=O)C2CC2)cc1`, the cytotoxicity at 70.5 h was 1.13%. To `O=C(CN1CCS(=O)(=O)CC1)NCc1cccc(Br)c1` belongs -2.1%.

As to `Cn1cnnc1CNC(=O)C1CCCN(Cc2ccccc2)C1` (configuration not stated), the cytotoxicity at 70.5 h came out at 0.292%. To `N#CC1(NC(=O)Cn2nnc(-c3cc4ccccc4o3)n2)CCCC1` belongs -11.5%; to `Cc1nc(NC(=O)C2CCCN(C(N)=O)C2)sc1-c1ccccc1` (configuration not stated), 28.7%; to `COCCCNC(=O)Cn1nnc(-c2cc3ccccc3o2)n1`, -13.2%.

Consider `Cc1ccc(Cl)cc1S(=O)(=O)NCc1cnc(N(C)C)n1C`, for which the cytotoxicity at 70.5 h was -11.7%. To `Cc1c(Cl)cccc1S(=O)(=O)NCc1cnc(N(C)C)n1C` belongs -8.26%; to `Nc1cc2c(nn1)CCN(C(=O)c1ccc(-c3ccco3)[nH]c1=O)C2`, -1.23%; to `Cc1nc(C)c(CNCC2CCCn3ccnc32)s1` (configuration not stated), 15.5%. In the case of `CC(NC(=O)N1CCC[C@H]1CO)c1noc(-c2ccccc2)n1` (some centres not stated) it was -3.8%. To `Cc1cccc(N(CC(=O)N2CCCCC2)Cc2nc(=O)[nH][nH]2)c1` belongs -0.474%; to `COC(=O)N1CCCN(C(=O)NC2CCc3ccccc3C2)CC1` (configuration not stated), -1.7%.

For `Cc1nsc(N2CCN(C(=O)Nc3cccc(F)c3)CC2)n1`, the cytotoxicity at 70.5 h was 13.5%. In the case of `CC1CCCN(c2ccccc2OCC(=O)NC2CC2)C1` (configuration not stated) it was 2.91%; in that of `CCNC(=O)COc1ccccc1N1CCCC(C)C1` (configuration not stated), -1.31%; in that of `CN(Cc1ccccc1F)C(=O)c1ccoc1`, -4.97%.

For `OC(CN1CCCc2cc(OC(F)F)ccc21)Cn1cccn1` (configuration not stated), the cytotoxicity at 70.5 h came to 12.9%. Regarding `Cc1csc(C(C)(C)NCC(=O)N2CCCC(C(N)=O)C2)n1` (configuration not stated), the cytotoxicity at 70.5 h is 6.15%.

With `OC(CN1CCCc2ccc(F)cc21)Cn1cccn1` (configuration not stated), the cytotoxicity at 70.5 h turned out to be 7.05%.

Turning to `C=C(C)COCCNC(=O)N1CCc2c(cccc2OC)C1`, the cytotoxicity at 70.5 h was 7.17%. To `CC(Cn1ccnc1)NS(=O)(=O)Cc1ccc(F)cc1` (configuration not stated) belongs -2.62%; to `Cc1cc(Br)c(O)c(C(=O)N2CCC(CN3CCCCCC3)CC2)c1`, -5.82%; to `Clc1ccc(CN2CCN(Cn3nccc3-c3cccnc3)CC2)s1`, 6.58%. In the case of `COC(=O)c1cccc(S(=O)(=O)NC(=O)c2ccccc2F)c1` it was -5.66%; in that of `Cc1nc(C(=O)Nc2cc(N3CCNC3=O)ccc2Cl)cs1`, -2.48%.

In the case of `N#Cc1c(F)cccc1NCCCOCC1CCOCC1`, the cytotoxicity at 70.5 h was -3.66%.

As for `CSc1ccc(OC(C)C(=O)Nc2cc[nH]n2)cc1` (configuration not stated), the cytotoxicity at 70.5 h was -2.7%. In the case of `Cc1noc2ncc(S(=O)(=O)Nc3cc(C(C)(C)C)n[nH]3)cc12` it was -4.7%. For `CSc1ccc(OC(C)C(=O)Nc2c(C)n[nH]c2C)cc1` (configuration not stated), the cytotoxicity at 70.5 h was -3.26%. As to `O=C(NS(=O)(=O)c1cccc(F)c1)c1ccccc1F`, the cytotoxicity at 70.5 h was 13.1%. For `CC(C)(C(=O)NCc1n[nH]c(=O)[nH]1)c1ccc(F)cc1`, the cytotoxicity at 70.5 h was -2.39%. To `COCC(NC(=O)NCc1ccc(C)c(F)c1)c1ccco1` (configuration not stated) belongs 1.44%; to `COCC(NC(=O)NCc1cccc(C#N)c1)c1ccco1` (configuration not stated), -2.38%. For `CCNC(=O)C1CCCN(c2ccc(C#N)cc2C(F)(F)F)C1` (configuration not stated), the cytotoxicity at 70.5 h is -4.1%.

As to `COC(C)(C)CC(C)NC(=O)Nc1ccccn1` (configuration not stated), the cytotoxicity at 70.5 h was -2.34%. To `Cc1csc(C(C)(C)NCC(=O)N2CCCC(C(F)(F)F)C2)n1` (configuration not stated) belongs 8.68%.

On to `CC(C)OCCOCC(O)CN(C)C(=O)Nc1ccc(F)cc1Cl` (configuration not stated), for which the cytotoxicity at 70.5 h is -2.75%. To `CC(C)(C)C(=O)N1CCN(Cn2nccc2-c2cccnc2)CC1` belongs -3.16%; to `CC(C)C(C)(O)CNC(=O)Nc1ccccn1` (configuration not stated), -1.52%; to `CCC[C@@H](NC(N)=O)C(=O)N1CCc2ccccc2CC1`, -3.57%.

`CN(CC1CC1)C(=O)Cc1csc(-c2ncccn2)n1`: the cytotoxicity at 70.5 h came to 0.625%. For the compound `NC(=O)CN(C(=O)c1cccc(C(F)(F)F)c1)C1CCCC1`, the cytotoxicity at 70.5 h is -6%.

For the compound `COc1ccc(OC)c(CCNc2ncc(S(N)(=O)=O)s2)c1`, the cytotoxicity at 70.5 h stood at 0.207%. With `COc1ccc(OC)c(CN(C)c2ncc(S(N)(=O)=O)s2)c1`, the cytotoxicity at 70.5 h is -10.9%. To `CS(=O)(=O)c1nnc(NC(=O)CCc2cccs2)[nH]1` belongs 17.8%.

Turning to `CN(CCn1cccn1)S(=O)(=O)c1ccc(C#N)cc1`, the cytotoxicity at 70.5 h was -8.98%. To `CCS(=O)(=O)CCNC(=O)NCc1ccccc1-n1cccn1` belongs 2.95%; to `CSC(CNS(=O)(=O)c1cnn(C)c1)c1cccc(Cl)c1` (configuration not stated), -6.72%. With `CC(C)Oc1cccc(CC(=O)N(CC(N)=O)C2CCCC2)c1`, the cytotoxicity at 70.5 h is -6.57%. To `CCOc1ccc(CN(C)C(=O)COc2ccc(C)nc2)cc1` belongs -8.96%. For `COc1ccccc1C1(CNc2snc(Cl)c2C#N)CCCC1`, the cytotoxicity at 70.5 h was found to be 19.8%. `CCCn1c(O)nnc1SCC1OCCc2ccccc21` (configuration not stated): the cytotoxicity at 70.5 h is -7.64%. To `FC(F)(F)c1cc(NCCCn2cccn2)nc(-c2cccnc2)n1` belongs 22.2%; to `Cn1c(N)nnc1SCC1OCCc2ccccc21` (configuration not stated), 6.39%; to `Cn1cccc(NC(=O)N2CCC(CSc3ccccc3)C2)c1=O` (configuration not stated), -13.5%. In the case of `Cc1cc(NCc2csc(-c3ccco3)n2)ccc1C(N)=O` it was -6.99%; in that of `O=C(N1CCC(O)(C(F)(F)F)C1)C1(c2ccc(Cl)cc2)CC1` (configuration not stated), 18.9%. `CC(C)CC(C(=O)N1CCCSCC1)N1CCCCC1=O` (configuration not stated): the cytotoxicity at 70.5 h was -3.18%. To `Cc1ccc(CNc2cnn(CC(F)F)c2)cc1C` belongs -0.638%; to `CN1CCN(S(=O)(=O)c2cncc(F)c2)c2ccccc2C1`, -11.8%; to `Cc1cc(F)c(S(=O)(=O)N(C)CCn2cccn2)cc1F`, -9.11%. To `Cc1ccc(OCc2nnc(SCC3CCCN(C)C3)o2)cc1` (configuration not stated) belongs -8.56%; to `O=C(Cc1ccccc1F)NCC1CCN(CCN2CCOCC2)C1` (configuration not stated), 2.01%. In the case of `CCc1nnsc1C(=O)N(C)Cc1ccco1` it was -1.63%.

With `O=C(NCC1CCOC1)N1CCN(c2ncccn2)CC1` (configuration not stated), the cytotoxicity at 70.5 h was found to be 0.214%. To `CCNC(=O)CNS(=O)(=O)c1cc(Br)ccc1F` belongs -2.68%; to `CC1COCCN1C(=O)NCCn1ccnc1` (configuration not stated), -3.25%; to `Cc1cc(C(=O)N2CCn3cc(CN4CCCCC4)nc3C2)no1`, -9.93%. `Cc1cc(C(=O)N2CCn3cc(CN(C)C)nc3C2)no1`: the cytotoxicity at 70.5 h is -7.02%. On to `O=C(c1ccccc1F)N1CC[C@@H]2CN(c3ncccn3)CCO[C@@H]2C1`, for which the cytotoxicity at 70.5 h stood at 4.95%. Take `CN1CCC2(CC1)OC(C(=O)NCc1cccnc1)Cn1ccnc12` (configuration not stated): the cytotoxicity at 70.5 h was -11.2%. For `O=C(c1cnccn1)N1CCc2ncc(CN3CCOCC3)n2CC1`, the cytotoxicity at 70.5 h is -8.64%.

For the compound `Cc1nc(CNC(C)c2cccc(N3CCCC3=O)c2)cs1` (configuration not stated), the cytotoxicity at 70.5 h is -7.67%. For the compound `CCc1nc(CNC(C)c2cccc(N3CCCC3=O)c2)cs1` (configuration not stated), the cytotoxicity at 70.5 h is -12.3%.

For `COc1cccc(CNc2c(C)nn(C(C)C)c2C)c1`, the cytotoxicity at 70.5 h is -2.2%. In the case of `CC(C)NCc1nc(-c2ccc3c(c2)OCO3)c[nH]1` it was -11.7%. Take `Cn1cc(CN2CCC3(CC2)CC(Nc2nccs2)CO3)cn1` (configuration not stated): the cytotoxicity at 70.5 h was determined as 16.9%. To `Cn1cc(C2COC3(CCN(C(=O)c4ccccn4)CC3)C2)cn1` (configuration not stated) belongs -12.1%.

On to `O=C(CC1CC1)N1CCc2ncc(CN3CCOCC3)n2CC1`, for which the cytotoxicity at 70.5 h is -13.3%. To `O=C(N1CCOCC1)N1CCc2ncc(CN3CCCCC3)n2CC1` belongs -12.1%. As for `O=C(NCC1CC1)[C@@H]1CCO[C@@H]2CCN(Cc3ccsc3)C[C@H]21`, the cytotoxicity at 70.5 h is -10.2%.

For `CNC(=O)C1Cn2ccnc2C2(CCN(Cc3cccs3)CC2)O1` (configuration not stated), the cytotoxicity at 70.5 h amounted to 11.6%. As for `Cc1ccc(C(=O)N2CC[C@]3(C[C@@H](OCc4ccccn4)CO3)C2)nc1`, the cytotoxicity at 70.5 h stood at 12.9%. Regarding `O=C(NCc1ccccn1)[C@H]1COC[C@H]2CN(CC3CC3)C[C@H]21`, the cytotoxicity at 70.5 h is -10.6%.

On to `O=C(NCc1ccccn1)[C@@H]1COC[C@H]2CN(C3CCC3)C[C@H]21`, for which the cytotoxicity at 70.5 h was -13.4%.

As to `CNC(=O)C1Cn2ccnc2C2(CCN(Cc3ccncc3)CC2)O1` (configuration not stated), the cytotoxicity at 70.5 h is -10.9%. To `CCOCc1ccc(CNC2=NCCCN2)cc1` belongs -2.49%.
